# Laboratory results published in BindingDB's records for doi:10.1021/jm050519b (Oxagen, 2005).
# Experiment: Concentration required to inhibit PGD-2 induced change in the shape of human eosinophils expressing CRTH2
row,IC50,Structure (SMILES)
1,908 nM,Cc1c(CC(=O)O)c2cc(F)ccc2n1S(=O)(=O)c1ccc(Cl)cc1 [[1-(4-Chloro-benzenesulfonyl)-5-fluoro-2-methyl-1H-indol-3-yl]-acetic acid]
2,74 nM,Cc1c(CC(=O)O)c2cc(F)ccc2n1S(=O)(=O)c1ccc(S(C)(=O)=O)cc1 [[5-Fluoro-1-(4-methanesulfonyl-benzenesulfonyl)-2-methyl-1H-indol-3-yl]-acetic acid]
